pKd, pKi: −log10 of the molar value.
What was measured:
[1] = Binding affinity to Zymomonas mobilis tRNA guanine transglycosylase assessed as inhibition of [8-3H]guanine incorporation into Escherichia coli tRNA Tyr at position G34 preincubated for 10 mins followed by tRNA Tyr/[8-3H]guanine addition measured after 30 mins by liquid scintillation counting
[2] = Binding affinity to Zymomonas mobilis tRNA guanine transglycosylase by isothermal titration calorimetry

Row | Compound | pKi [1] | pKd [2]
1 | Nc1nc2cc3nc(NCCc4ccc(CCO)cc4)[nH]c3cc2c(=O)[nH]1 | 8.15 | 
2 | Nc1nc2cc3nc(NCCc4ccccc4)[nH]c3cc2c(=O)[nH]1 | 8.00 | 7.25
3 | COC(=O)c1ccc(CCNc2nc3cc4nc(N)[nH]c(=O)c4cc3[nH]2)cc1 | 8.70 | 
4 | Nc1nc2cc3nc(NCCc4ccc(C(=O)O)cc4)[nH]c3cc2c(=O)[nH]1 | 7.52 | 7.53
5 | N#Cc1ccc(CCNc2nc3cc4nc(N)[nH]c(=O)c4cc3[nH]2)cc1 | 7.68 | 
